# Results as given in patent US20050112573A1, “Method of detecting toxic substance” (priority 2001, published 2005).
# System: yeast genes (level of expressed mRNA)
# Assay: DNA chip analysis of expressed mRNA of yeast genes after 2 h culture with a toxic chemical substance
# Assay type: cell-based, Saccharomyces cerevisiae S288C
# Description: Yeast (Saccharomyces cerevtisiae S288C (α SUC2mal mel gap2 CUP1)) were cultured at 25° C. on YPD medium (yeast extract 1%, polypepton 2%, glucose 2%). One of toxic chemical substances was added to the cell at logarithmic growth phase, and the cell was further cultured for two hours. Cell was cultured without any chemical substance in the same condition, and was used as control. Concentrations of the chemical substances were defined to inhibit the growth of the yeast but not lead to death.
# After the completion of cultivation, the culture was centrifuged to collect the cells. To the cells, sodium acetate buffer (50 mM sodium acetate, 10 mM EDTA, 1% SDS) was added, and the mixture was shaken at 65° C. for five minutes, followed by returning to room temperature, and obtaining the supernatant, which procedure was repeated two times. To the supernatant, ½ amount of a solution of phenol/chloroform was added, and the mixture was centrifuged to give a supernatant, which was added with an equal amount of chloroform, and the mixture was centrifuged to give a supernatant. To the supernatant, an equal amount of isopropanol containing 0.3 M sodium acetate was added, and the mixture was allowed to stand at room temperature for 30 minutes, after which the mixture was centrifuged to give a sediment of the whole RNAs. Seventy % ethanol was added to the sediment, and the mixture was again centrifuged to give a sediment, which was then dried and dissolved in water. mRNA was isolated from the whole RNAs as followings. In view of the fact that a poly A chain is attached to the 3′ terminus of mRNA, a polynucleotide having a poly T structure which was immobilized on the surface of latex beads was used to trap the mRNA, and then the mRNA was washed and eluted with spine column (Oligotex-dT30<Super>mRNA Purification Kit, Takara). Reverse transcription of the mRNA was conducted with a reverse transcriptase (Super Script II Reverse Transcriptase; catalogue No. 18064-014, GibcoBRL) using fluorescence-labeled nucleotides to give cDNAs that were introduced with Cy3-dUTP or Cy5-dUTP during the reverse transcription.
# The labeled cDNAs were dissolved in TE buffer (10 mM Tris-HCl/1 mM EDTA, pH8.0), and the solution was dropped on the DNA chip containing the whole genes of yeast (DNA Chip Research Inc. Japan) so that the cDNAs were hybridized on the DNA chip at 65° C. for over 12 hours. The fluoresces intensity of the DNA chip was read with a scanner, and the ratio relative to the fluorescence intensity resulting from the absence of chemical substance was estimated as the following, which is shown in Tables 1 to 9: [formula]
# In the Tables, “Intensity” indicated in the rightmost column is a value of the level of expressed mRNA of each gene in control cells as divided by the average level of the expressions of the whole genes.
compound,measurement,setting,value
"C=CC=O [(14), acrolein]",level of expressed mRNA in the presence of chemical substance/in its absence,gene YAL012W,0.9
same,The level of expressed mRNA in the presence of chemical substance/absence: YAL014C,gene YAL014C,1.8
same,The level of expressed mRNA in the presence of chemical substance/absence: YAL017W,gene YAL017W,1.1
same,The level of expressed mRNA in the presence of chemical substance/absence: YAL018C,gene YAL018C,1.0
same,level of expressed mRNA in the presence of chemical substance/in its absence,gene YAL038W,0.5
same,level of expressed mRNA in the presence of chemical substance/in its absence,gene YAL044C,1.4
same,The level of expressed mRNA in the presence of chemical substance/absence: YAL049C,gene YAL049C,2.0
same,level of expressed mRNA in the presence of chemical substance/in its absence,gene YAL054C,1.3
same,The level of expressed mRNA in the presence of chemical substance/absence: YAR047C,gene YAR047C,1.3
same,The level of expressed mRNA in the presence of chemical substance/absence: YAR064W,gene YAR064W,1.1
same,level of expressed mRNA in the presence of chemical substance/in its absence,gene YAR071W,1.1
same,level of expressed mRNA in the presence of chemical substance/in its absence,gene YBL001C,1.5
same,The level of expressed mRNA in the presence of chemical substance/absence: YBL044W,gene YBL044W,0.9
same,The level of expressed mRNA in the presence of chemical substance/absence: YBL100C,gene YBL100C,0.9
same,The level of expressed mRNA in the presence of chemical substance/absence: YBR012C,gene YBR012C,0.9
same,The level of expressed mRNA in the presence of chemical substance/absence: YBR013C,gene YBR013C,2.5
same,level of expressed mRNA in the presence of chemical substance/in its absence,gene YBR014C,1.2
same,level of expressed mRNA in the presence of chemical substance/in its absence,gene YBR023C,0.8
same,level of expressed mRNA in the presence of chemical substance/in its absence,gene YBR029C,0.9
same,level of expressed mRNA in the presence of chemical substance/in its absence,gene YBR035C,1.3
same,level of expressed mRNA in the presence of chemical substance/in its absence,gene YBR050C,1.3
same,The level of expressed mRNA in the presence of chemical substance/absence: YBR051W,gene YBR051W,1.0
same,The level of expressed mRNA in the presence of chemical substance/absence: YBR063C,gene YBR063C,1.7
same,The level of expressed mRNA in the presence of chemical substance/absence: YBR066C,gene YBR066C,1.1
same,level of expressed mRNA in the presence of chemical substance/in its absence,gene YBR068C,1.8
same,level of expressed mRNA in the presence of chemical substance/in its absence,gene YBR111C,1.6
same,The level of expressed mRNA in the presence of chemical substance/absence: YBR124W,gene YBR124W,1.0
same,level of expressed mRNA in the presence of chemical substance/in its absence,gene YBR126C,0.7
same,The level of expressed mRNA in the presence of chemical substance/absence: YBR129C,gene YBR129C,1.6
same,level of expressed mRNA in the presence of chemical substance/in its absence,gene YBR145W,2.2
same,The level of expressed mRNA in the presence of chemical substance/absence: YBR162C,gene YBR162C,0.5
same,level of expressed mRNA in the presence of chemical substance/in its absence,gene YBR183W,1.3
same,level of expressed mRNA in the presence of chemical substance/in its absence,gene YBR222C,0.5
same,The level of expressed mRNA in the presence of chemical substance/absence: YBR255W,gene YBR255W,1.1
same,The level of expressed mRNA in the presence of chemical substance/absence: YBR281C,gene YBR281C,0.9
same,The level of expressed mRNA in the presence of chemical substance/absence: YBR287W,gene YBR287W,0.8
same,level of expressed mRNA in the presence of chemical substance/in its absence,gene YBR299W,1.4
same,level of expressed mRNA in the presence of chemical substance/in its absence,gene YCL009C,0.7
same,The level of expressed mRNA in the presence of chemical substance/absence: YCL044C,gene YCL044C,1.0
same,The level of expressed mRNA in the presence of chemical substance/absence: YCL056C,gene YCL056C,2.2
same,level of expressed mRNA in the presence of chemical substance/in its absence,gene YCL064C,0.8
same,The level of expressed mRNA in the presence of chemical substance/absence: YCR007C,gene YCR007C,1.7
same,level of expressed mRNA in the presence of chemical substance/in its absence,gene YCR037C,0.8
same,level of expressed mRNA in the presence of chemical substance/in its absence,gene YCR048W,0.9
same,level of expressed mRNA in the presence of chemical substance/in its absence,gene YCR098C,1.1
same,level of expressed mRNA in the presence of chemical substance/in its absence,gene YDL022W,0.8
same,The level of expressed mRNA in the presence of chemical substance/absence: YDL046W,gene YDL046W,1.2
same,The level of expressed mRNA in the presence of chemical substance/absence: YDL089W,gene YDL089W,1.2
same,The level of expressed mRNA in the presence of chemical substance/absence: YDL173W,gene YDL173W,2.1
same,The level of expressed mRNA in the presence of chemical substance/absence: YDL193W,gene YDL193W,1.1
same,The level of expressed mRNA in the presence of chemical substance/absence: YDL233W,gene YDL233W,1.1
same,level of expressed mRNA in the presence of chemical substance/in its absence,gene YDR009W,1.5
same,level of expressed mRNA in the presence of chemical substance/in its absence,gene YDR019C,1.6
same,The level of expressed mRNA in the presence of chemical substance/absence: YDR071C,gene YDR071C,2.0
same,The level of expressed mRNA in the presence of chemical substance/absence: YDR078C,gene YDR078C,1.8
same,The level of expressed mRNA in the presence of chemical substance/absence: YDR090C,gene YDR090C,0.9
same,The level of expressed mRNA in the presence of chemical substance/absence: YDR109C,gene YDR109C,1.0
